Data taken from ChEMBL document CHEMBL3507680, “University of Dundee, Gates Library screen for HepG2 cell viability”.

Assay: Human HepG2 cell viability assay in 384 well format
Format: toxicity, cell-based
Design: dose 125 nL, time 70.5 hour; concentration not given beside the values
Details: HepG2 cells, read-out: Inhibition

| Structure (SMILES) | cytotoxicity at 70.5 h [%] |
| --- | --- |
| COc1cccc(-c2cc(NCCO)nc3[nH]ccc23)n1 | -10.9 |
| CN(C1CCCCC1)S(=O)(=O)NC1CCCN(c2ncccn2)C1 (stereo not given) | -8.05 |
| COCCn1cnnc1CNc1cc(C)nc2c(C)c(C)nn12 | -5.61 |
| CCn1c(N)nc2cc(C(=O)NCCc3ccccc3C)cnc21 | -5.73 |
| CNC(=O)C1(c2cnccn2)CCCN1C(=O)c1cccc(C)n1 (stereo not given) | -5.53 |
| O=C(c1cccs1)N1CC(C(=O)N2CCCC2)C2(CCOCC2)C1 (stereo not given) | 0.22 |
| CCC(=O)N1CCCN(C(=O)C2SCCc3sccc32)CC1 (stereo not given) | 3.13 |
| CCn1ncc2c1CCCC2NCC1=Cc2ccccc2OC1 (stereo not given) | -12.8 |
| Cc1nnc(NC(=O)N2CCC(N3CCCCC3)CC2)s1 | -8.18 |
| CN(C)C(C(=O)NCCS(=O)(=O)N(C)C)c1cccc(F)c1 (stereo not given) | 8.21 |
| CN(CC(F)(F)F)C(=O)c1ccc(F)c(NS(C)(=O)=O)c1 | -1.16 |
| CC(=O)NC[C@]1(O)CCN(C(=O)c2ccc3c(c2)OCO3)C[C@H]1O | -4.98 |
| Cc1nc(CN2C(=O)COC3(CCN(CC4CC4)CC3)C2C)cs1 (stereo not given) | 2.37 |
| COc1ccc(C(C)NC(=O)Nc2nnc(C)s2)cc1OC (stereo not given) | 2.44 |
| O=C(NCCNc1ncccn1)C1CCN(C(=O)C2CC2)CC1 | -13 |
| CC(C)(C)S(=O)(=O)c1ccc(N2CCN(c3ccccc3)CC2)nn1 | -8.92 |
| O=C([C@H]1C[C@@H]2CCN(c3cccc(F)c3)C[C@H]2O1)N1CCCC1 | -14.2 |
| Cc1nc(C2CCN(C[C@H](C)CO)CC2)cc(N2CCOCC2)n1 | -0.547 |
| O=C(C1CCOCC1)N1C[C@H](OCc2cccnc2)[C@H]2COC[C@H]21 | -5.49 |
| CN1CCc2nc(C3CCCN(C(=O)CC4CCCCC4)C3)ncc2C1 (stereo not given) | 0.186 |
| Cc1ccc(-n2cc(CN3CCOCC(CN(C)C)C3)cn2)cc1C (stereo not given) | 37.2 |
| Cc1cc(CNCC2CCCN(C(=O)OC(C)(C)C)C2)no1 (stereo not given) | -6.15 |
| NC(=O)N1CCCC1COC(=O)c1cc(F)ccc1F (stereo not given) | -1.3 |

| Structure (SMILES) | cytotoxicity at 70.5 h [%] |
| --- | --- |
| Cn1cnnc1CN1CCC2(CCC(=O)N(Cc3ccccc3)C2)CC1 | -4.83 |
| Cc1ccc(C(=O)N2C[C@H](OCc3cccnc3)[C@H]3COC[C@H]32)cn1 | -2.21 |
| Cn1c(Cn2ccnc2)nnc1C1CCN(C(=O)c2ccncc2)CC1 | -5.75 |
| CCn1cc2c(n1)C(COCC1CC1)CN(C(=O)c1cc(C)on1)C2 (stereo not given) | -10.4 |
| OC(CN1CCN(Cc2ccc(F)c(F)c2)CC1)C1CC1 (stereo not given) | 0.728 |
| CN(C)Cc1nnc(C2CCCN(Cc3ccc(Cl)s3)C2)n1C (stereo not given) | 5.14 |
| Cc1ccc(S(=O)(=O)N2CCOc3ccccc32)cc1C(=O)O | -1.56 |
| CN(Cc1cnn(C)c1)C(=O)Cc1ccc2c(c1)OCCO2 | -62.7 |
| CN(Cc1noc(C2CC2)n1)C1CCN(Cc2cccc(F)c2F)C1 (stereo not given) | 15.9 |
| CC1(C)[C@H]2CC=C(CN3CCCn4nc(C(=O)O)cc4C3)[C@@H]1C2 | -19.9 |
| CCn1ccnc1-c1nccn1-c1ccccc1CN1CCOCC1 | -8.91 |
| O=C(NCCCO)Nc1cccc(Cl)c1F | -8.31 |
| c1ccc(-c2noc(CNC3CCc4ncnn4C3)n2)nc1 (stereo not given) | -4.56 |
| CCCS(=O)(=O)N1CCC2(CCC(=O)N(CCc3cccnc3)C2)CC1 | -10.9 |
| COC(=O)N1CCC(NC2CCSCC2)C1 (stereo not given) | 0.96 |
| NC(=O)c1ccc(CNC2CC2)cc1 | 16 |
| COc1ccc(COCC(=O)N2CCCC(n3cncn3)C2)cc1 (stereo not given) | 19.2 |
| COc1cc(NC(=O)NC2CC2)ccc1N1CCOC1=O | -8.49 |
| COCc1nc2ncc3c(=O)n(-c4ccc(C(C)=O)cc4)ccc3n2n1 | -10.8 |
| c1ccc(C2CN(C3CC3)CC3(CCN(Cc4cscn4)CC3)C2)cc1 (stereo not given) | -5.25 |
| CC(C)N(C)CC(=O)NCC(O)c1cc2ccccc2s1 (stereo not given) | -7.72 |
| CC(C)(CCS(C)(=O)=O)CNC(=O)NC1CCCCC1(C)C (stereo not given) | 28 |
| O=S(=O)(C1CC1)N1CCn2cc(CNc3ccccn3)nc2C1 | -0.935 |

| Structure (SMILES) | cytotoxicity at 70.5 h [%] |
| --- | --- |
| COc1ncccc1CNC(=O)N(Cc1ccccc1F)C1CC1 | -0.0541 |
| COCc1nn(C)c2c1CN(Cc1cnn(C)c1)CC2 | -11.4 |
| CC(NC(=O)NCc1cccc(CN2CCCC2)c1)c1nccs1 (stereo not given) | -5.42 |
| Cc1sc2nc(CCN)nc(N3CC(N4CCCCC4)C3)c2c1C | 26 |
| O=C(c1ccccc1-c1ccccc1)N1CCOC2(CNCCOC2)C1 (stereo not given) | -11.1 |
| O=C(C1CCC1)N1CCO[C@H]2[C@H](OCCCn3cccn3)CC[C@@H]21 | 29 |
| Cc1cc(NCCSc2nccn2C)n2nc(C)c(C)c2n1 | -4.55 |
| Cc1cnn(CC2CN(Cc3nc4ccccc4nc3C)CCO2)c1 (stereo not given) | -0.573 |
| CCc1nnc(CNC(=O)CCCN2CCCCC2)s1 | -0.919 |
| CC(C)C1CN(c2cnccn2)CCC(=O)N1Cc1ccc(F)cc1 (stereo not given) | -0.619 |
| Cn1nc2c(cc1=O)CN(CC(=O)Nc1ccc(Cl)cn1)CC2 | -3.49 |
| CC(C)CN1CC2(CCN(C(=O)C(O)c3cccc(Cl)c3)CC2)CC1=O (stereo not given) | 1.55 |
| Cc1c(C(=O)NCC2CCN(Cc3ccco3)C2)[nH]c2ccccc12 (stereo not given) | -5.18 |
| COc1ccc(CNC[C@H]2Cn3ccnc3CO2)cn1 | -2.5 |
| c1cncc(C2COC3(CCN(Cc4ccsc4)CC3)C2)c1 (stereo not given) | -3.18 |
| CN1CCOC(C)(C(=O)N2CCN(C3CCCC3)CC2)C1 (stereo not given) | -11.9 |
| c1cnc(-c2noc(C3CN(Cc4ccsc4)C3)n2)cn1 | -8.37 |
| O=C(NC1CCN(c2ccc(-c3ccccc3F)nn2)C1)c1cc[nH]n1 (stereo not given) | -12.8 |
| Cc1ccc(Br)cc1S(=O)(=O)NCCc1nnc[nH]1 | 11.5 |
| O=C1CC[C@H]2[C@H](CCN2C(=O)N2CCCC2)N1Cc1ccncc1 | 50.7 |
| CCCc1ncc(C(=O)c2ccc(OC)cc2)n1C | 14.7 |
| O=C(NC1CC1)[C@H]1C[C@H]2OCC[C@H]2N(Cc2ccc(F)cc2)C1 | -6.46 |
| CC(c1ccncn1)N(C)Cc1cc2cc3c(cc2[nH]c1=O)OCO3 (stereo not given) | 3.45 |

| Structure (SMILES) | cytotoxicity at 70.5 h [%] |
| --- | --- |
| CCOc1ccc(C(F)(F)F)cc1NC(=O)N1CCC(C(N)=O)CC1 | -4.57 |
| Cc1ccc(CN(CC(=O)N2CCOC(C)C2)C2CC2)cc1 (stereo not given) | -6.74 |
| Cn1c(CCN2CCN(c3ccc(O)cc3)CC2)nc2ccccc21 | 14.6 |
| O=S1(=O)CCC(S(=O)(=O)c2cccc(S(=O)(=O)N3CCCCCC3)c2)C1 (stereo not given) | -10.9 |
| c1cc(-c2cnc(C3CCNCC3)cn2)n[nH]1 | 12.8 |
| COc1cc(Oc2ncccc2C(F)(F)F)ccc1CN1CCCC1 | 4.5 |
| CCCN1CCC(Nc2cc(-c3ccccc3)ccc2OC)CC1 | 0.639 |
| CCc1ncc(-c2cn(CCSc3ncn[nH]3)nn2)cn1 | -11.1 |
| COc1ccc(C(C)NCc2ccnn2C)cc1Cn1cccn1 (stereo not given) | -6.58 |
| Cc1nc(CN2CCOC3(CCCC3)C2)oc1C | -4.4 |
| COc1nccc(C(F)(F)F)c1C(=O)O | 0.892 |
| COc1cccc(C(=O)NCc2ccccc2S(=O)(=O)N(C)CCO)c1 | -4.69 |
| CC(=O)N[C@@H]1CN(Cc2cccs2)C[C@H]1c1ccc(C)o1 | 1.3 |
| O=C(Nc1ccc2c(ccn2CCN2CCOCC2)c1)c1ccncc1 | -1.62 |
| COc1ccc(COCC(O)CNC(=O)c2ccc(C)c(F)c2)cc1 (stereo not given) | -1.89 |
| O=C(NCC(O)COc1cccc(F)c1)c1ccoc1 (stereo not given) | -13.2 |
| Cc1cc2ccncc2n1CC1(O)CCN(C(=O)c2ccncc2)CC1 | -1.76 |
| CCOCC1CN(C(=O)c2ccco2)Cc2cnn(C)c21 (stereo not given) | -2.81 |
| CN(C)C(=O)N1CCN(Cc2cnc(-c3ccsc3)s2)CC1 | -11.7 |
| C[C@@H]1CN2C[C@H](O)CC2CN1Cc1ccc2nccnc2c1 (stereo not given in full) | 35.6 |
| CN(Cc1ccncn1)C(=O)CCC(=O)NC1CCCC1 | -9.64 |
| CCN1CCC2(CCN(Cc3nccs3)CC2)C1=O | 0.565 |
| CN(C)c1cc(NCc2cnc3n2CCN(CC2CC2)CC3)ncn1 | 2.24 |

| Structure (SMILES) | cytotoxicity at 70.5 h [%] |
| --- | --- |
| COc1cc(N2CC[C@@H](O)[C@@H]2Cc2ccncc2)ncn1 | -10 |
| Cc1cn[nH]c1C1COCCN1C(=O)c1ccc2c(c1)CCCC2 (stereo not given) | -3.65 |
| CC(=O)Nc1ccc(C(=O)N(C)Cc2cccc(F)c2)s1 | -105 |
| CCCc1n[nH]c(C2CN(C(=O)CCn3nc(C)cc3C)CCO2)n1 (stereo not given) | 0.729 |
| O=C(c1nsc(Cl)c1Cl)N1CCc2nc3sccc3c(=O)n2CC1 | -3.17 |
| O=C1N(Cc2ccc(F)c(F)c2)CCCC12CCN(C1CCSCC1)C2 (stereo not given) | 9.34 |
| Cc1nccn1-c1ccc(=O)n(CCNC(=O)c2cccs2)n1 | -11.7 |
| O=C(NCCCn1cnnc1)C1CCCN(C2CCCC2)C1 (stereo not given) | 26.7 |
| O=C(NC1CCc2nccn2C1)c1ccc(NC2CC2)nc1 (stereo not given) | -12 |
| O=C(c1ccnc(C2CCNCC2)c1)N1CCCOCC1 | -1.42 |
| CN(CC(N)=O)Cc1ccc(F)cc1Cl | -5.08 |
| O=C(CCn1ccc2ccccc21)Nc1ccnn1CC1CCOC1 (stereo not given) | -16.3 |
| COc1cccc(OC)c1CNC(Cc1ccsc1)c1ccc(C)cn1 (stereo not given) | 4.63 |
| CSCCCN1CCCC(Cn2ccnc2)C1 (stereo not given) | -11.5 |
| NCC1(c2cccc(F)c2)CCOCC1 | 19.1 |
| Nc1cnc(-c2cccc3c2CCNC3)cn1 | -15.3 |
| CN(c1ncccc1CNCc1ncc[nH]1)C1CCCCC1 | -13.1 |
| CNC(=O)c1cccc(CN2CCN(C3=NCC(C)(C)S3)CC2)c1 | -5.92 |
| Cc1nc(O)cc(C2CCN(Cc3ccc(F)c(F)c3)C2)n1 (stereo not given) | -5.53 |
| Cc1cc(C(=O)N2CCNC(=O)C2)c(C)n1CC(F)(F)F | 26.8 |
| Cn1cc(CN2CCCC(n3c(=O)oc4ccccc43)C2)cn1 (stereo not given) | -0.583 |
| Cn1c(=O)n(C)c2cc(NS(=O)(=O)Cc3ccccc3)ccc21 | -6.3 |
| CN(Cc1ccsc1)C(=O)Nc1ccc(=O)n(C)c1 | -6.48 |
